Measurements from paper PMC5676773, “Odor-evoked inhibition of olfactory sensory neurons drives olfactory perception in Drosophila” (Nature Communications, 2017).

Experiments:
[1] = target: T1, Or85a (OR/ORCO complex in Or85a-OSNs) (Drosophila melanogaster, UniProt Q9VHS4); test: perforated patch clamp of Or85a-OSNs, outward receptor current (reduction of basal current); format: cell-based; details: 150-ms odor pulses, -80 mV; inhibits constitutive activity (inverse agonist), competitive against ethyl 3-hydroxybutyrate; Hill fit, n = 4; read-out: K 1/2
T1 construct: native receptor in Or85a-expressing olfactory sensory neurons, antennal slices; GFP-labelled via Or85a-Gal4; with Odorant receptor coreceptor
T1 sequence (Q9VHS4 1-397): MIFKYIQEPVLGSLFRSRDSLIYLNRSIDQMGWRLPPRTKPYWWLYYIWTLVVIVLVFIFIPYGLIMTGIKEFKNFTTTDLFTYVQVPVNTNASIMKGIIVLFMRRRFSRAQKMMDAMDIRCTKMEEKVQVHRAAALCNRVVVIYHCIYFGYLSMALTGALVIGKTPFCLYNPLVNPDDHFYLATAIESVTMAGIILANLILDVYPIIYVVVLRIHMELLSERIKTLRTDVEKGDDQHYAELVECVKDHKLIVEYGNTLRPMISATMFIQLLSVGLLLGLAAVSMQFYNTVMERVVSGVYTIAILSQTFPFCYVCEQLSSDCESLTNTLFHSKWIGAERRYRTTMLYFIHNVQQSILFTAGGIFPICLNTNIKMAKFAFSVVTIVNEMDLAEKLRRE
T1 sequence (Q9VNB5 1-486 partner): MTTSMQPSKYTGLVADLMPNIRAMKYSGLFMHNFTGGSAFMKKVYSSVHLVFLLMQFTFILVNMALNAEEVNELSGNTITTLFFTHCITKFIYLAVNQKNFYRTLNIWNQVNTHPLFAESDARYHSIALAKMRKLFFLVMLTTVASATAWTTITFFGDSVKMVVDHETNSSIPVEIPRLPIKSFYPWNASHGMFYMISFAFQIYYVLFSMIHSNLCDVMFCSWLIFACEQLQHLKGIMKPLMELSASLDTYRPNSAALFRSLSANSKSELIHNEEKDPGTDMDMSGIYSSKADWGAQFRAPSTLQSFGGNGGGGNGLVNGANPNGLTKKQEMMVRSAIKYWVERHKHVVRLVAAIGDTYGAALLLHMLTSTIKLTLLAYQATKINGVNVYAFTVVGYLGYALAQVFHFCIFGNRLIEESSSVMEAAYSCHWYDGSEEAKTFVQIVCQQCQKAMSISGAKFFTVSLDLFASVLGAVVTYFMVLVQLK

[2] = target: T1, Or85a (OR/ORCO complex in Or85a-OSNs); test: perforated patch clamp of Or85a-OSNs, inward receptor current; format: cell-based; details: 35-ms odor pulses, no acetophenone; excitatory odor (agonist); nominal concentration in saline; voltage-clamped; read-out: K 1/2

EC50 [2] [mM] | SMILES | IC50 [1] [mM]
– | CC(=O)c1ccccc1 [acetophenone] | 27 ± 13
1.1 ± 0.2 | CCOC(=O)CC(C)O (centres unmarked) [ethyl 3-hydroxybutyrate] | –
